Results from PMC9693123 (2022).

Key:
[1] = system: Tel23 (DNA, G4) TAGGGTTAGGGTTAGGGTTAGGG; assay: UV melting at 295 nm; conditions: KCl 0.1 M; NaCacodylate 2.5 mM, pH 7.0; ligand 1.40 × 10^-5 M, Tel23 1.38 × 10^-5 M
[2] = system: Tel12 (DNA, G4) TAGGGTTAGGGT; assay: UV-vis titration, HypSpec2014 fit; conditions: KCl 0.1 M, NaCacodylate 2.5 mM, pH 7.0, 25 °C
[3] = system: Tel12 (DNA, G4) TAGGGTTAGGGT; assay: UV melting at 295 nm; conditions: KCl 0.1 M; NaCacodylate 2.5 mM, pH 7.0; ligand 1.75 × 10^-5 M, Tel12 1.87 × 10^-5 M
[4] = system: Tel23 (DNA, G4) TAGGGTTAGGGTTAGGGTTAGGG; assay: UV-vis titration, HypSpec2014 fit; conditions: KCl 0.1 M; NaCacodylate 2.5 mM, pH 7.0, 25 °C
[5] = system: Tel12 (DNA, G4) TAGGGTTAGGGT; assay: X-ray crystallography; conditions: K+ in channel

Row | SMILES | ΔTm [1] [°C] | LogK [2] | ΔTm [3] [°C] | LogK [4] | binding ([5]; 0.05 M KCacodylate, 0.1 M Li2SO4, pH 6.5, 20% v/v PEG400) | binding ([5]; 0.1 M NaI in crystallizing solution, 0.05 M NaCacodylate pH 6.5, 35% v/v MPD) | LogK ([2]; 1:1 step, further 1:2 ligand:G4 adduct also fitted)
1 | COc1ccc2c(CCCCCc3ccncc3)c3[n+](cc2c1OC)CCc1cc2c(cc1-3)OCO2 | 5.1 ± 1.1 | 7.2 ± 0.2 | 15.0 ± 1.4 | 5.6 ± 0.2 | – | – | –
2 | COc1ccc2c(CCCCc3ccncc3)c3[n+](cc2c1OC)CCc1cc2c(cc1-3)OCO2 | 5.9 ± 1.0 | 7.0 ± 0.2 | 8.7 ± 1.5 | 5.2 ± 0.2 | yes | – | –
3 | COc1ccc2c(CCCc3ccncc3)c3[n+](cc2c1OC)CCc1cc2c(cc1-3)OCO2 | 2.3 ± 0.6 | 6.6 ± 0.2 | 16.7 ± 1.3 | 5.8 ± 0.2 | – | – | –
4 | COc1ccc2c(CCc3ccncc3)c3[n+](cc2c1OC)CCc1cc2c(cc1-3)OCO2 | 4.1 ± 0.8 | 6.1 ± 0.2 | 9.7 ± 1.8 | 4.0 ± 0.3 | – | yes | –
5 | COc1ccc2c(Cc3ccncc3)c3[n+](cc2c1OC)CCc1cc2c(cc1-3)OCO2 | 4.1 ± 0.4 | – | 14.4 ± 1.5 | 4.4 ± 0.2 | – | – | 6.0 ± 0.2
